From patent publication US11180496B2 (Daewoong Pharmaceutical Co., Ltd., priority 2017, dated 2021)

Columns and labels:
BTK = biological target: T1, BTK (Homo sapiens, UniProt Q06187); assay: BTK inhibitory activity, ADP-Glo + BTK Kinase enzyme system kit (Promega); assay type: biochemical; settings: BTK enzyme 1 ng/uL, ATP 10 uM, 15 min preincubation, luminescence, duplicate
T1 construct: purchased Promega
Protocol: (§1) The inhibitory activity against BTK and ITK of the compounds prepared in Examples above were measured as follows.
(§2) The inhibitory activity against BTK was evaluated using ‘ADP-Glo™+BTK Kinase enzyme system’ kit from Promega. […] 5 uL of substrate and 5 uL of ATP prepared at a final concentration of 10 uM were added to all wells of the plate after completion of the reaction, and allowed to react at 30° C. for 1 hour. All wells of the plate after completion of the reaction were treated with 25 uL of ADP-Glo™ reagent and reacted at 30° C. for 40 minutes. Then, 50 uL of the kinase detection buffer was applied to all wells of the plate, and then the light was blocked and reacted at 30° C. for 30 minutes. For the plate for which all reactions were completed, the luminescence was measured and the results were calculated. The evaluation was performed in duplicate. The respective values of negative and positive controls, depending on whether the enzymes were added without treatment of the compound, were determined, and IC50 was calculated based on the values.

ITK = biological target: T2, ITK (Homo sapiens, UniProt Q08881); assay: ITK inhibitory activity, ADP-Glo + ITK Kinase enzyme system kit (Promega); assay type: biochemical; settings: ITK enzyme 0.4 ng/uL, ATP 25 uM, 15 min preincubation, luminescence, duplicate
T2 construct: purchased Promega
T2 sequence (Q08881 1-620): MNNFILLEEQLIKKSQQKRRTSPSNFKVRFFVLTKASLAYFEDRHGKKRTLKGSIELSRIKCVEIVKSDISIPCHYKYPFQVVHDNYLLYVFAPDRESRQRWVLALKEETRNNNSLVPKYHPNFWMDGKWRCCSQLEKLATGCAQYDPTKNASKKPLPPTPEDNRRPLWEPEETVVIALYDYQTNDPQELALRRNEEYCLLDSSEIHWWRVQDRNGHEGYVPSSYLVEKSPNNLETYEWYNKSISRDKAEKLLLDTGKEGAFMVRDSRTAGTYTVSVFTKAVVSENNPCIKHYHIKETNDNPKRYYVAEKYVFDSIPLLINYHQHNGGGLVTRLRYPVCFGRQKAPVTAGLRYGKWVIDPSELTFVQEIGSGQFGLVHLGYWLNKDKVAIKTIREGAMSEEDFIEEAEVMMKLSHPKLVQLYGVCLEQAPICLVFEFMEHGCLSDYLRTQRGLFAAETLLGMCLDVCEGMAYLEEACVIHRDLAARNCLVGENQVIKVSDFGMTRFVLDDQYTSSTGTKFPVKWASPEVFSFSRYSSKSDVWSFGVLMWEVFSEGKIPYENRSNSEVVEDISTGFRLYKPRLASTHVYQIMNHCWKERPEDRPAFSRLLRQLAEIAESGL
Protocol: as §1
as §2, with “ITK” for “BTK”, “‘ADP-Glo™+ITK” for “‘ADP-Glo™+BTK”, “25” for “10”

T1 sequence (Q06187 whole entry): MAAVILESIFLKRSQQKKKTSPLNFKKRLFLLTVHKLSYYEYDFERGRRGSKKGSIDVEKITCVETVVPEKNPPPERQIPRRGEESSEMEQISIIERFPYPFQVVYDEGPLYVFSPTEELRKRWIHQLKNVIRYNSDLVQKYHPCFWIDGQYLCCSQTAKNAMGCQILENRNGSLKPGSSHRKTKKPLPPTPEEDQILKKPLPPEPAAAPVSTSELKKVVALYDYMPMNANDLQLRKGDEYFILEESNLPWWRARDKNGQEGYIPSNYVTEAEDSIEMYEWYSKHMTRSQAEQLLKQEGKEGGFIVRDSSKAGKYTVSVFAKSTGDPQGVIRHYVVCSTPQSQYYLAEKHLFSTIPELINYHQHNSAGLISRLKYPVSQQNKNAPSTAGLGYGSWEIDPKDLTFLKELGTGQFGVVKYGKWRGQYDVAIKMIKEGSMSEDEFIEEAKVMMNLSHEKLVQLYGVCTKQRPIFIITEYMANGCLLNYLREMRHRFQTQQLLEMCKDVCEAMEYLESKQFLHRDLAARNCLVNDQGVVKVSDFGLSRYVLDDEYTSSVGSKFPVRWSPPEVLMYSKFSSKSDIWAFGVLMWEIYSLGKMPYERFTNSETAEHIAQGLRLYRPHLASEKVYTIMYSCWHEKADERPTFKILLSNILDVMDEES

| SMILES | IC50 (BTK) [nM] | IC50 (ITK) [nM] |
| --- | --- | --- |
| C#CC(=O)N1CCCC(n2nc(-c3ccc(Oc4ccccc4)cc3)c3c(N)nccc32)C1 (stereo not drawn) [Example 2, 1-(3-(4-amino-3-(4-phenoxyphenyl)-1H-pyrazolo[4,3-c]pyridin-1-yl)piperidin-1-yl)prop-2-yn-1-one] | 3.5 | 15.7 |
| C=CC(=O)N1CCC(n2nc(-c3ccc(Oc4ccccc4)cc3)c3c(N)nccc32)CC1 [Example 3, 1-(4-(4-amino-3-(4-phenoxyphenyl)-1H-pyrazolo[4,3-c]pyridin-1-yl)piperidin-1-yl)prop-2-en-1-one] | 2.7 | > 1000 |
| C#CC(=O)N1CCC(n2nc(-c3ccc(Oc4ccccc4)cc3)c3c(N)nccc32)CC1 [Example 4, 1-(4-(4-amino-3-(4-phenoxyphenyl)-1H-pyrazolo[4,3-c]pyridin-1-yl)piperidin-1-yl)prop-2-yn-1-one] | 5.5 | 277 |
| C=CC(=O)N1CCCC(n2nc(-c3ccc(Oc4ccccc4)cc3)c3c(N)ncc(I)c32)C1 (stereo not drawn) [Example 5, 1-(3-(4-amino-7-iodo-3-(4-phenoxyphenyl)-1H-pyrazolo[4,3-c]pyridin-1-yl)piperidin-1-yl)prop-2-en-1-one] | 6.7 | 19.5 |
| C=CC(=O)N1CCCC(n2nc(-c3ccc(Oc4ccccc4)cc3)c3c(N)ncc(Cc4ccccc4)c32)C1 (stereo not drawn) [Example 6, 1-(3-(4-amino-7-benzyl-3-(4-phenoxyphenyl)-1H-pyrazolo[4,3-c]pyridin-1-yl)piperidin-1-yl)prop-2-en-1-one] | 29.9 | 288 |
| C=CC(=O)N1CCCC(n2nc(-c3ccc(Oc4ccccc4)cc3)c3c(N)ncc(-c4cnn(C)c4)c32)C1 (stereo not drawn) [Example 7, 1-(3-(4-amino-7-(1-methyl-1H-pyrazol-4-yl)-3-(4-phenoxyphenyl)-1H-pyrazolo[4,3-c]pyridin-1-yl)piperidin-1-yl)prop-2-en-1-one] | 3 | 36.4 |
| C=CC(=O)N1CCCC(n2nc(-c3ccc(Oc4ccccc4)cc3)c3c(N)ncc(Br)c32)C1 (stereo not drawn) [Example 10, 1-(3-(4-amino-7-bromo-3-(4-phenoxyphenyl)-1H-pyrazolo[4,3-c]pyridin-1-yl)piperidin-1-yl)prop-2-en-1-one] | 2.1 | 10.8 |
| C=CC(=O)N1CCCC(n2nc(-c3ccc(Oc4ccccc4)cc3)c3c(N)ncc(-c4ccccc4)c32)C1 (stereo not drawn) [Example 11, 1-(3-(4-amino-3-(4-phenoxyphenyl)-7-phenyl-1H-pyrazolo[4,3-c]pyridin-1-yl)piperidin-1-yl)prop-2-en-1-one] | 11.4 | 224 |
| C=CC(=O)N1CCC[C@@H](n2nc(-c3ccc(C(=O)Nc4ccccn4)cc3)c3c(N)nccc32)C1 [Example 18, (R)-4-(1-(1-acryloylpiperidin-3-yl)-4-amino-1H-pyrazolo[4,3-c]pyridin-3-yl)-N-(pyridin-2-yl)benzamide] | 1 | 26.4 |
| C=CC(=O)N1CCC[C@@H](n2nc(-c3ccc(C(=O)Nc4ccccc4)cc3)c3c(N)ncc(Br)c32)C1 [Example 24, (R)-4-(1-(1-acryloylpiperidin-3-yl)-4-amino-7-bromo-1H-pyrazolo[4,3-c]pyridin-3-yl)-N-phenyl benzamide] | 1.2 | 36.8 |

Second part, the molecule after the results:

| IC50 (BTK) [nM] | IC50 (ITK) [nM] | SMILES |
| --- | --- | --- |
| 1.4 | 37.7 | C=CC(=O)N1CCCC(n2nc(-c3ccc(Oc4ccccc4)cc3)c3c(N)nccc32)C1 (stereo not drawn) [Example 1, 1-(3-(4-amino-3-(4-phenoxyphenyl)-1H-pyrazolo[4,3-c]pyridin-1-yl)piperidin-1-yl)prop-2-en-1-one] |
| 7.3 | > 500 | C=CC(=O)N1CC2CC1C(n1nc(-c3ccc(Oc4ccccc4)cc3)c3c(N)ncc(-c4cnn(C)c4)c31)C2 (stereo not drawn) [Example 8, 1-(6-(4-amino-7-(1-methyl-1H-pyrazol-4-yl)-3-(4-phenoxyphenyl)-1H-pyrazolo[4,3-c]pyridin-1-yl)-2-azabicyclo[2.2.1]heptan-2-yl)prop-2-en-1-one] |
| 1.5 | 11.3 | C=CC(=O)N1CCCC(n2nc(-c3ccc(Oc4ccccc4)cc3)c3c(N)ncc(Cl)c32)C1 (stereo not drawn) [Example 9, 1-(3-(4-amino-7-chloro-3-(4-phenoxyphenyl)-1H-pyrazolo[4,3-c]pyridin-1-yl)piperidin-1-yl)prop-2-en-1-one] |
| 7.7 | > 1000 | C=CC(=O)N1CCC(n2nc(-c3ccc(Oc4ccccc4)cc3)c3c(N)ncc(I)c32)CC1 [Example 12, 1-(4-(4-amino-7-iodo-3-(4-phenoxyphenyl)-1H-pyrazolo[4,3-c]pyridin-1-yl)piperidin-1-yl)prop-2-en-1-one] |
| 5.1 | > 1000 | C=CC(=O)N1CCC(n2nc(-c3ccc(Oc4ccccc4)cc3)c3c(N)ncc(-c4cnn(C)c4)c32)CC1 [Example 13, 1-(4-(4-amino-7-(1-methyl-1H-pyrazol-4-yl)-3-(4-phenoxyphenyl)-1H-pyrazolo[4,3-c]pyridin-1-yl)piperidin-1-yl)prop-2-en-1-one] |
| 4.1 | 38.4 | C=CC(=O)N1CCCC(n2nc(-c3ccc(Oc4ccccc4)cc3)c3c(N)ncc(/C=C/c4ccc(F)cc4)c32)C1 (stereo not drawn) [Example 14, (E)-1-(3-(4-amino-7-(4-fluorostyryl)-3-(4-phenoxyphenyl)-1H-pyrazolo[4,3-c]pyridin-1-yl)piperidin-1-yl)prop-2-en-1-one] |
| 3.7 | > 500 | C=CC(=O)N1CCC(n2nc(-c3ccc(Oc4ccccc4)cc3)c3c(N)ncc(/C=C/c4ccc(F)cc4)c32)CC1 [Example 15, (E)-1-(4-(4-amino-7-(4-fluorostyryl)-3-(4-phenoxyphenyl)-1H-pyrazolo[4,3-c]pyridin-1-yl)piperidin-1-yl)prop-2-en-1-one] |
| 1 | 2.7 | C=CC(=O)N1CCC[C@@H](n2nc(-c3ccc(Oc4ccccc4)cc3)c3c(N)ncc(I)c32)C1 [Example 16, (R)-1-(3-(4-amino-7-iodo-3-(4-phenoxyphenyl)-1H-pyrazolo[4,3-c]pyridin-1-yl)piperidin-1-yl)prop-2-en-1-one] |
| 1.7 | 7.8 | C=CC(=O)N1CCC[C@@H](n2nc(-c3ccc(C(=O)Nc4ccccn4)cc3)c3c(N)ncc(Cl)c32)C1 [Example 19, (R)-4-(1-(1-acryloylpiperidin-3-yl)-4-amino-7-chloro-1H-pyrazolo[4,3-c]pyridin-3-yl)-N-(pyridin-2-yl)benzamide] |
| 15.2 | > 1000 | C=CC(=O)N1CCC[C@@H](n2nc(-c3ccc(C(=O)Nc4ccccn4)cc3)c3c(N)ncc(Br)c32)C1 [Example 20, (R)-4-(1-(1-acryloylpiperidin-3-yl)-4-amino-7-bromo-1H-pyrazolo[4,3-c]pyridin-3-yl)-N-(pyridin-2-yl)benzamide] |
| 10.7 | > 1000 | C=CC(=O)N1CCC[C@@H](n2nc(-c3ccc(C(=O)Nc4ccccn4)cc3)c3c(N)ncc(I)c32)C1 [Example 21, (R)-4-(1-(1-acryloylpiperidin-3-yl)-4-amino-7-iodo-1H-pyrazolo[4,3-c]pyridin-3-yl)-N-(pyridin-2-yl)benzamide] |
| 2.5 | 131 | C=CC(=O)N1CCC[C@@H](n2nc(-c3ccc(C(=O)Nc4ccccc4)cc3)c3c(N)nccc32)C1 [Example 22, (R)-4-(1-(1-acryloylpiperidin-3-yl)-4-amino-1H-pyrazolo[4,3-c]pyridin-3-yl)-N-phenyl benzamide] |
| 1.2 | 48 | C=CC(=O)N1CCC[C@@H](n2nc(-c3ccc(C(=O)Nc4ccccc4)cc3)c3c(N)ncc(Cl)c32)C1 [Example 23, (R)-4-(1-(1-acryloylpiperidin-3-yl)-4-amino-7-chloro-1H-pyrazolo[4,3-c]pyridin-3-yl)-N-phenyl benzamide] |
| 1.5 | 39.5 | C=CC(=O)N1CCC[C@@H](n2nc(-c3ccc(C(=O)Nc4ccccc4)cc3)c3c(N)ncc(I)c32)C1 [Example 25, (R)-4-(1-(1-acryloylpiperidin-3-yl)-4-amino-7-iodo-1H-pyrazolo[4,3-c]pyridin-3-yl)-N-phenyl benzamide] |
